Reference: patent US8496964B2, “Controlled release micro-capsule for osteogenic action” (Council of Scientific & Industrial Research, priority 2009, dated 2013)

Key:
[1] = In vitro Kaempferol release in SGF and SIF; type: physicochemical; details: SIF compared with SGF
Excerpt: For in-vitro release study the ultra sink condition was maintained. Briefly, Dried pure Kaempferol dispersed in PBS, the Kaempferol-loaded CaCO3 MP (CaCO3-Kaempferol) and the encapsulated Kaempferol-loaded microcapsules suspension in same concentration were taken in centrifuge tube in one ml phosphate buffer saline (PBS). Two different pH solutions were used as the release medium [a simulated gastric fluid (SGF) (pH 1.2), prepared by diluting a concentrated HCl solution] and [a simulated intestinal fluid (SIF) (pH 7.4), prepared with 0.02M phosphate buffer saline]. The sample was maintained under horizontal agitation at 37° C. in vortex. At different time intervals the dispersion was centrifuged at 10,000 rpm for 5 min. and the supernatant was assayed for Kaempferol using RP-HPLC method at 370 nm against reagent blank. After each sampling the medium was replaced with fresh buffer. It was also ensured that no extra tiny particles are left in the supernatant.

in vivo = details: rat, po, 1 mg/kg
Method: Kaempferol (free; 1 mg/kg) in 20% ethanol was orally administered by gavage. Following administration, the rats were sacrificed at 0.25, 0.5, 1.0, 1.5, 2.0, 2.5, 3.0, 4.0, 6.0, and 24 h to obtain serum and bone marrow. After protein precipitation, concentration of Kaempferol in serum and bone marrow was determined by HPLC. […] Similarly formulated (LbL based assembly) Kaempferol (equivalent to 1 mg/kg of free Kaempferol) was administered orally using gavage. Following administration, the rats were sacrificed at 0.25, 0.5, 1.0, 1.5, 2.0, 2.5, 3.0, 4.0, 6.0, and 24 h to obtain serum and bone marrow. After protein precipitation concentration of Kaempferol in serum and bone marrow was determined by HPLC. The mean serum pharmacokinetics profile (for the three rats at each time point) of kaempferol on administration of formulation was calculated over 24 h. Rapid absorption of Kaempferol is evident, which appeared to peak after 1 h and can be detected for as long as 24 h post administration.

[2] = system: ovariectomized (OVx) rats; test: Bone mineral density (BMD) by DEXA after one month of oral administration; type: in vivo, female Sprague Dawley rats
Method: (§1) The study was conducted in accordance with current legislation on animal experiments [Institutional Animal Ethical Committee (IAEC)] at C.D.R.I. Forty female Sprague Dawley rats weighing 200 g were taken for the study (n=10/group). Thirty rats were bilaterally ovariectomized (OVx). The other 10 rats were exposed to a sham surgical procedure. All rats were individually housed at 21° C., in 12-h/12-h light-dark cycles. Normal chow diet and water was provided ad libitum. The rats were left for 4 weeks to develop osteopenia. The animals were divided into 4 groups Sham, Ovaticetomized group (Ovx), Ovx+Kaempferol (Ovaticetomized group treated with Kaempferol) and Ovx+F (Ovaticetomized group treated with formulation of Kaempferol). Animals were treated for one month then sacrificed and BMD was determined.
BMD was determined by DEXA (Dual Energy X-ray Absorptiometry) using a Hologic QDR 4500A x-ray densitometer with high-resolution small animal software. BMD of the excised bones (left femurs, tibia, and lumbar vertebrae) were studied at the end of experiment. Left femurs were placed on their posterior surfaces, and BMD of the sub-regions was assessed. Distal and proximal regions corresponded to the cancellous bone and central to the cortical bone. Results are given in g/cm^2 as represented in FIG. 5.

[3] = system: ovariectomized (OVx) rats; test: Trabecular bone strength, Bone Strength Tester TK-252C; type: in vivo, female Sprague Dawley rats; details: one month treatment
Method: as §1
This test predominantly measured trabecular bone strength using a Bone Strength Tester TK-252C (Muromachi Kikai Co. Ltd., Tokyo, Japan). The bone strength for all the groups was measured as reported in this invention.

OVx rats = details: cited from earlier work
[4] = one month oral treatment, excised bone
[5] = compared with OVx group treated with vehicle

O=c1c(O)c(-c2ccc(O)cc2)oc2cc(O)cc(O)c12 [Kaempferol]
Kaempferol saturation solubility [1]: much higher
AUC(0-t) (in vivo): 1420 ng·h/mL
Tmax (in vivo): 30 min
time after which bone marrow level went below the detection limit (in vivo): 2.5 h
time after which serum level went below the detection limit (in vivo): 6 h
time of Cmax in bone marrow (in vivo): 90 min
Cmax (in vivo; Cmax of Kaempferol in bone marrow): 194 ng/mL
Cmax (in vivo; Cmax of Kaempferol in serum): 583 ± 229 ng/mL
Bone Mineral Density, Femur diaphysis [2, 4]: 0.2658 ± 0.01 g/cm^2
Bone Mineral Density, Femur global [2, 4]: 0.262 ± 0.01 g/cm^2
Bone Mineral Density, Tibia Head [2, 4]: 0.2835 ± 0.015 g/cm^2
Bone Mineral Density, Vertebrae global [2, 4]: 0.1847 ± 0.013 g/cm^2
trabecular BMD over OVx+vehicle group ([2]; one month treatment): significantly higher
bone biomechanical strength over OVx+vehicle group [3]: significantly higher
Bone strength ([3]; trabecular bone): 209.4 ± 21.52 N/mm
bone sparing action (OVx rats): exerts bone sparing action
estrogen agonistic effect at the uterine level (OVx rats): no estrogen agonistic effect
adipocyte differentiation from bone marrow cells (OVx rats; [5]): inhibition
osteoprogenitor cells (OVx rats; [5]): increase
